# Data taken from US7914768B2, “Stabiliser for radiopharmaceuticals” (GE Healthcare Limited, priority 2000, dated 2011).
# Assay: Rcp of ^99mTc-HMPAO after addition of a single stabiliser, two step process (Example 1)
# Assay type: physicochemical
# Conditions: additive added 2 minutes post-radiolabelling; amount as in table; n = 3 (*n = 1)
# Protocol: To each of ten vials each containing 0.5 mg of HMPAO and 4.0 μg of Sn^2+ (stannous), was added sodium pertechnetate (1.48 GBq in 5 ml of saline) to carry out the radiolabelling. To each of 9 of the ten reconstituted vials was individually added the compound shown in Table 1 at a time of 2 minutes post-radiolabelling. Nothing was added to the remaining vial. At 1 minute and 3 hours after the addition, an aliquot was taken from each vial and the Rcp measured by a combination of three chromatographic systems (stationary phase/developing solvent: silica gel/methyl ethyl ketone, silica gel/saline, filter paper/50% aqueous acetonitrile).
Rcp 1 min from addition (%),Rcp 3 hours from addition (%),Compound
51* %,14* %,O=C(O)CCC(=O)O [Succinic acid]
69 ± 5%,39 ± 11%,"Nc1ccc(C(=O)[O-])cc1.[Na+] [Sodium4-amino-benzoate, sodium 4-aminobenzoate]"
80 ± 8%,67 ± 5%,"Nc1ccc(C(=O)O)cc1 [4-Aminobenzoic acid, 4-aminobenzoic acid]"
61 ± 3%,29 ± 13%,O=C(NCCO)c1cc(O)ccc1O [Gentisic acid ethanolamide]
83* %,41* %,O=C1O[C@H]([C@@H](O)CO)C(O)=C1O [Ascorbic acid]
87 ± 2%,77 ± 3%,O=C(O)c1cc(O)ccc1O [Gentisic acid]
79* %,30* %,"O=P(O)(O)CP(=O)(O)O [Methylene diphosphonic acid, methylenediphosphonic acid]"
90* %,51* %,O=C1O[C@H]([C@@H](O)CO)C([O-])=C1O.[Na+] [Sodium ascorbate]

Compound,Rcp 1 min from addition (%),Rcp 3 hours from addition (%)
[Cl][Co][Cl] [Cobalt chloride],94 ± 3%,89 ± 2%
